# Key:
# Myzus persicae = Myzus persicae test (cabbage leaf dip); assay type: in vivo; conditions: single active compound
# [1] = system: Phaedon cochleariae larvae; assay: Phaedon cochleariae larvae test (cabbage leaf dip); conditions: single active compound
molecule,measurement,setting,value
"Cc1cc(C)c(C2=C(OC(=O)CC(C)(C)C)C3(CCCC3)OC2=O)c(C)c1 [spiromesifen, reference compound]",Kill in % after 1d,Myzus persicae; 100 ppm,0%
same,Kill in % after 6d,[1]; 100 ppm,10%
O=C1C=C(N(Cc2ccc(Cl)nc2)C2CC2)CO1 [compound (Ib)],Kill in % after 1d,Myzus persicae; 0.8 ppm,10%
same,Kill in % after 1d,Myzus persicae; 4 ppm,75%
CN(Cc1ccc(Cl)nc1)C1=CC(=O)OC1 [compound (Ia)],Kill in % after 1d,Myzus persicae; 0.8 ppm,70%
same,Kill in % after 6d,[1]; 20 ppm,5%
same,Kill in % after 4d,[1]; 100 ppm,68%
spirotetramate [reference compound],Kill in % after 1d,Myzus persicae; 0.8 ppm,5%
same,Kill in % after 4d,[1]; 20 ppm,5%
